# Reference: patent US11401264B2, “Heterocyclic compound” (Orizuru Therapeutics, Inc., priority 2018, dated 2022)
# Experiments:
# [1] = test system: cardiomyocytes (embryoid bodies) from double knock-in human iPS cell lines (mCherry at TNNI3 locus); assay: Experimental Example 3: mCherry expression in TNNI1+ cells by flow cytometry, Example 8 with Compound A; type: cell-based; details: DMSO control 10.2
# Experimental: (§1) For detection of cardiomyocyte maturation, double knock-in human iPS cell lines, in which reporter protein sequences, EmGFP (Sequence Number 1) and mCherry (Sequence Number 2) were inserted into gene loci for TNNI1 and TNNI3, respectively, were prepared (the human iPS cells were prepared from episomal vector (loaded gene; OCT3/4, KLF4, SOX2, L-MYC, LIN28, mouse p53DD) using PBMC (LP_167, Sample ID: 20130318) purchased from CTL (reference literature; Okita K, et al. Stem Cells. 2012 Nov. 29. doi: 10.1002/stem.1293)).
# (§2) The maintenance culture of the above-mentioned reporter iPS cell lines was carried out by a conventional method (Okita K, et al. Stem Cells. 2012 Nov. 29. doi: 10.1002/stem.1293).
# For differentiation induction into cardiomyocytes, the reporter iPS cell lines were treated with 0.5×TrypLE select (Life Technologies, diluted in 1/2 with 0.5 mM EDTA/PBS) for 4 to 5 minutes, and the cells were exfoliated using a cell scraper (IWAKI), and then dissociated into the single cell by pipetting. […]
# [2] = test system: cardiomyocytes (embryoid bodies) from double knock-in human iPS cell lines (mCherry at TNNI3 locus); assay: Experimental Example 2: mCherry expression in TNNI1+ cells by flow cytometry; type: cell-based; details: 3 μM, 8th-16th day, DMSO control 7.8
# Experimental: as §1, §2
# For differentiation induction into cardiomyocytes, the reporter iPS cell lines were treated with 0.5×TrypLE select (Life Technologies, diluted in 1/2 with 0.5 mM EDTA/PBS) for 4 to 5 minutes, and the cells were exfoliated using a cell scraper (IWAKI), and then dissociated into the single cell by pipetting. The medium was removed by centrifugation (1,000 rpm, 5 min), and the obtained cells were suspended in a medium prepared by adding 1% L-glutamine, transferrin 150 μg/mL, ascorbic acid 50 μg/mL (Sigma), monothioglycerol […], 10 μM Rock inhibitor (Y-27632), 2 ng/mL BMP4 (R&D) and 0.5% Matrigel (Growth Factor Reduced) to StemPro-34 SFM (ThermoFisher) in a 6 well-plate by 2×10^6 cells/1.5 mL/well, and then subjected to static culture at 37° C., under 5% oxygen condition to form embryoid bodies (0 day).
# Next day (1st day), a medium prepared by adding 1% L-glutamine, transferrin 150 μg/mL, ascorbic acid 50 μg/mL (Sigma), monothioglycerol 4><10^−4 M, 1.8 μL (concentration 12 ng/mL) of 10 μg/mL activin A, […] (concentration 10 ng/mL) of 10 μg/mL bFGF and 2.7 μL (concentration 18 ng/mL) of 10 μg/mL BMP4 to 1.5 mL of StemPro-34 SFM (ThermoFisher) was added to each well of the 6 well plate containing the embryoid bodies to adjust the volume combined with the 0 day's medium to final 3 mL (activin A: 6 ng/ml, bFGF: 5 ng/ml, BMP4: 10 ng/ml), and the embryoid bodies were cultured at 37° C. for additional 2 days, under 5% oxygen condition.
# Then (3rd day), the 6 well plate containing the embryoid bodies was inclined, and then left to stand for 1 to 2 minutes until the embryoid bodies were precipitated at the edges of the wells, and the supernatant was aspirated so as not to suck the embryoid bodies. Then, IMDM (ThermoFisher) medium was added to each well, and, as above, the plate was inclined, and then left to stand for 1 to 2 minutes, and the supernatant was aspirated so as not to suck the embryoid bodies. A medium prepared by adding 1% L-glutamine, transferrin 150 μg/mL, ascorbic acid 50 μg/mL (Sigma), monothioglycerol 4×10^−4 M, 10 ng/mL VEGF, 1 μM IWP-3, 0.6 μM dorsomorphin and 5.4 μM SB431542 to 3 mL of StemPro-34 SFM (ThermoFisher) was added to each well of the 6 well plate, and then the embryoid bodies were cultured at 37° C. for 3 days, under 5% oxygen condition.
# Then (6th day), the 6 well plate containing the embryoid bodies was inclined, and then left to stand for 1 to 2 minutes until the embryoid bodies were precipitated at the edges of the wells, and the supernatant was aspirated so as not to suck the embryoid bodies. […]
smiles,measurement,setting,value
"O=C1c2ccc(N3CCOCC3)cc2CN1c1ccc2[nH]c(-c3ccc(Br)cc3)nc2c1 [Example 8, 2-(2-(4-bromophenyl)-1H-benzimidazol-5-yl)-5-(morpholin-4-yl)isoindolin-1-one]",mCherry+ (%),"[1]; Example 8 3 μM 8-9th days, then compound A 40 nM 10-15th days",64.3%
same,mCherry+ (%),"[1]; Example 8 3 μM 8-9 days, then Example 8 3 μM + Compound A 40 nM 10-15th days",85.1%
same,mCherry+ (%),[2],61.0%
